According to patent US20230372293A1, “SIRT1 INHIBITOR OR ANTAGONIST FOR USE IN PREVENTING AND/OR TREATING AN HPV INDUCED TUMOUR” (UNIVERSITA' DEGLI STUDI DEL PIEMONTE ORIENTALE "A. AVOGADRO", priority 2020, published 2023):
Where a SMILES comes first, the peptide text is derived from it. The star is where a group is joined. Cbz = O=C(OCc1ccccc1)*

What was measured:
HeLa cells [1] = experiment: Annexin V-FITC/IP apoptosis assay, EX527 and doxorubicin; format: cell-based; conditions: DX 1.5 μM 24 h, FIG. 6
Method: (§1) For this purpose, HeLa, CaSki, and NOKE6E7 cells were treated with EX527 (80 μM) for 24 h, or with an equal volume of DMSO solvent and after this period elapsed, they were treated with DX (1.5 μM for HeLa and NOKE6E7, 0.5 μM for CaSki) for a further 24 h. After this incubation period at 37° C., the cells were processed using the “Annexin V-FITC Apoptosis Detection Kit” (BioLegend), a technique that allows the presence of apoptotic and necrotic cells to be detected by cytofluorimetric analysis. This assay exploits the ability of the annexin protein to bind to phosphatidylserine (PS) and thus give fluorescence in green thanks to the conjugated fluorophore (FITC, fluorescein isothiocyanate). PS is a phospholipid normally found on the inner side of the cell membrane. During apoptosis processes, on the other hand, PS is exposed to the outside and allows annexin V to bind to it. […] Subsequently, 400 μl of Annexin V Binding Buffer were added to each tube and the cells were analysed on the FACSCalibur flow cytometer instrument (BD Biosciences) (excitation at 488 nm, emission 518 nm and 400 nm for FITC and IP respectively). The results were then analysed with the FlowJo programme.

CaSki cells [2] = experiment: as above; format: cell-based; conditions: DX 0.5 μM 24 h, FIG. 6
Method: as §1

HeLa cells [3] = experiment: Cell cycle analysis by propidium iodide flow cytometry, EX527 and doxorubicin; format: cell-based; conditions: DX 1.5 μM 16 h
Method: (§2) For this purpose, HeLa and CaSki cells were treated with EX527 (80 μM) for 24 h, or with an equal volume of DMSO solvent and after this period elapsed, they were treated with DX (1.5 μM for HeLa, 0.5 μM for CaSki) for a further 16 h. After this incubation period at 37° C., the cells were labelled with propidium iodide (IP). Propidium iodide (3,8-diamino-5-diethylmethyl aminopropyl-6-phenylphenanthridine diiodide) (IP) is a synthetic dye characterised by low fluorescence (red-orange), capable of selectively binding to nucleic acids. It is known that the DNA content varies according to the phase of the cycle in which a cell is found. In particular, the G2 phase and mitosis (M) have twice as much DNA as the G1 phase, while during the DNA synthesis phase (S phase), the cell has an intermediate amount of DNA between the content in G1 and G2. Since the apoptotic cells, once resuspended in an appropriate buffer, release small DNA fragments, a reduction in IP fluorescence (related to the decrease in DNA content) can be observed in them. […] The cytofluorimetric analysis was performed on the FACSCalibur flow cytometer instrument (BD Biosciences) (excitation at 488 nm and emission 400 nm) and the results were analysed with the FlowJo programme.

CaSki cells [4] = experiment: as above; format: cell-based; conditions: DX 0.5 μM 16 h
Method: as §2

HeLa cells [5] = experiment: MTT cell viability, EX527 and doxorubicin; format: cell-based; conditions: DX 1.5 μM for 16, 40, 64 h
Method: (§3) The observations described above prompted an analysis of whether HPV-positive cells in which SIRT1 is inhibited with consequent reduced expression of E6 and E7 and restoration of p53, could be more sensitive to the treatment with genotoxic drugs, such as doxorubicin (DX, SIGMA ALDRICH). Firstly, cell viability was determined following treatment with EX527 in combination with doxorubicin against HeLa and CaSki cells, using the MTT (3-(4,5-dimethylthiazol-2-yl)-2,5-diphenyltetrazolium bromide; SIGMA-ALDRICH) colorimetric assay. To this purpose, the cells were exposed to a concentration of EX527 of 80 μM or equal volume of solvent, dimethyl sulfoxide (DMSO, SIGMA ALDRICH) for 24 h, after this period elapsed the cells were treated with DX (1.5 μM for HeLa, 0.5 μM for CaSki) for a further 16, 40, 64 h. Subsequently, the supernatant was removed, the well was washed with PBS1× (SIGMA-ALDRICH) and incubated for 2 hours at 37° C. and 5% of CO2 with DMEM medium supplemented with 500 μg/mL MTT solution. […] On these solubilised cells, absorbance was measured at a wavelength of 570 nm, using the Victor3 multiplate reader spectrophotometer (Perkin Elmer). The absorbance value obtained from the sample treated with the carrier alone at the maximum dose was considered equal to 100% viability and the other values were related thereto.

CaSki cells [6] = experiment: MTT cell viability, EX527 and doxorubicin; format: cell-based; conditions: DX 0.5 μM for 16, 40, 64 h
Method: as §3

NOKE6E7 cells = experiment: Annexin V-FITC/IP apoptosis assay, EX527 and doxorubicin; format: cell-based, human; conditions: DX 1.5 μM 24 h, FIG. 6
Method: as §1

HeLa cells [7] = experiment: Western blot of E6 and E7 with proteosome inhibitor MG132; format: cell-based; conditions: DMSO then MG132 30 μM 8 h, vs DMSO control
Method: (§4) In order to determine whether the inhibition of E6 or E7 proteins was due to a transcriptional or post-translational modification, HeLa or CaSki cells, pre-treated for 48 h with EX527 at a concentration of 80 μM or equal volume of solvent, dimethyl sulfoxide (DMSO, SIGMA ALDRICH), were incubated with a proteosome inhibitor, MG132 (SIGMA ALDRICH) for 8 h at a concentration of 30 μM. After this incubation period at 37° C., the expression levels of viral E6 and E7 proteins were tested. The α-tubulin protein was included as an internal loading control. The cells were lysed with RIPA buffer (50 mM Tris-HCl pH 7.4; 150 mM NaCl; 1 mM EDTA; 1% Nonidet P-40; 0.1% SDS; 0.5% deoxycholate; protease inhibitors) for 30 min on ice. The samples were subsequently centrifuged for 10 minutes at 13000 rpm at 4° C. to remove cellular debris and then the proteins were quantified using the Bradford method (BIO-RAD). 30 μg of protein extract were taken, to which the appropriate amount of Laemmli sample buffer (50 mM Tris-HCl pH 6.8, 2% SDS, 10% glycerol, 2% β-mercaptoethanol) was added. The thus obtained solution was heated to 95° C. for 5 minutes and separated by polyacrylamide (12%)-SDS page gel electrophoresis. […]

CaSki cells [8] = experiment: as above; format: cell-based; conditions: DMSO then MG132 30 μM 8 h, vs DMSO control
Method: as §4

Structure (SMILES) | percentage of apoptotic cells, DX (HeLa cells [1]) | percentage of apoptotic cells, DX (CaSki cells [2]) | cell death (sub-G0/G1 phase), DX (HeLa cells [3]) | cell death (sub-G0/G1 phase), DX (CaSki cells [4]) | mortality rate (MTT), DX alone (HeLa cells [5]) | mortality rate (MTT), DX alone (CaSki cells [6]) | percentage of apoptotic cells, DX (NOKE6E7 cells) | expression of E6 and E7 after DMSO plus MG132 (HeLa cells [7]) | expression of E6 and E7 after DMSO plus MG132 (CaSki cells [8])
COc1cccc2c1C(=O)c1c(O)c3c(c(O)c1C2=O)C[C@@](O)(C(=O)CO)C[C@@H]3O[C@H]1C[C@H](N)[C@H](O)[C@H](C)O1 [DX, doxorubicin] | increase in the percentage of apoptotic cells | increase in the percentage of apoptotic cells | increase in cell death (sub-G0/G1 phase) | increase in cell death (sub-G0/G1 phase) | mortality rate increases more | mortality rate increases more | increase in the percentage of apoptotic cells | – | –
CC(C)C[C@@H](C=O)NC(=O)[C@H](CC(C)C)NC(=O)[C@H](CC(C)C)NC(=O)OCc1ccccc1 [MG132] (Cbz-Leu-Leu-Leu-aldehyde) | – | – | – | – | – | – | – | recovery in the expression of the tested proteins | recovery in the expression of the tested proteins
